Test results taken from US7351722B2, “Use of Mangafodipir for treating oxidative stress effects” (Universite Rene Descartes (Paris V), priority 2001, dated 2008).

Tested on: acetaminophen-induced acute hepatic failure
Settings: 500 mg/kg APAP, ASAT after 12 hours
Description: In a second series of experiments, one group of mice was given a dose of 500 mg/kg of acetaminophen; a second group was given the same dose of acetaminophen, and a dose of 10 mg/kg of Mangafodipir administered 2 h before the acetaminophen; a third group of animals was given the same dose of acetaminophen, and a dose of 10 mg/kg of MnTBAP, and a fourth group of animals was given the same dose of acetaminophen, and a dose of 10 mg/kg of CuDIPS. The ASAT serum transaminases are assayed 12 hours after the administration of acetaminophen.

Manganese dipyridoxyl phosphate [Mangafodipir]
transaminase activities, APAP500 alone relative to Mangafodipir pretreatment (10 mg/kg 2 h before): 10 times | effect on transaminase activities (10 mg/kg): decreases the transaminase activities
